Reference: patent publication US6034211A, “β-sheet nucleating peptidomimetics” (priority 1996, dated 2000)
Starred links: 1 amine or outer side, 2 acyl side, 3 side chain; linkers in the order of their positions; H or OH if unused. Non-standard residues stand in square brackets, D forms with d. Residues, ends and D or L forms follow the SMILES beside them. X1 = O=C(CCc1ccccc1-c1cccc(CCN[*:1])c1)[*:2]; Orn = NCCC[C@H](N)C(=O)O

What was measured:
[1] = Amide proton/deuterium exchange studies by NMR; format: physicochemical; details: for rates of amide proton/deuterium exchange of the Leu and Val residues flanking 1 relative to the remaining residues: peptide A 3.0-3.3 mM, pH 3.4-3.6, peptide D 2.5-2.9 mM, pH 4.1-5.1
Protocol: Information concerning the hydrogen-bonding network within a peptide containing residue 1A in aqueous solution was obtained from amide exchange studies of peptide A (3.0-3.3 mM, pH 3.4-3.6) and peptide D (2.5-2.9 mM, pH 4.1-5.1) where peptides A and D appear to be unstructured by far-UV CD.
Amide exchange studies at pH 3.2 were used to examine the hydrogen-bonding properties of peptide G which is expected to be partially folded on the basis of the studies discussed above.

[2] = Far-UV circular dichroism studies of peptide folding (random coil vs β-sheet); format: physicochemical
Protocol: Heptapeptide A has an -amino acid sequence homologous to a 4-(2-aminoethyl)-6-dibenzofuranpropionic acid-based heptapeptide studied previously, allowing comparsion of the efficacy of the biphenyl- and dibenzofuran-based amino acids as nucleators in a momologous α-aminoacid sequence. Peptide B, having a Phe in place of Leu-3, was prepared to test the feasibility of using an aromatic-aromatic interaction to stabilize the hydrophobic cluster and facilitate β-sheet folding. In peptide C, ornithine-2 was replaced with Glu to probe the effect of an addition long-range residue-residue electrostatic interaction (salt bridge) on β-sheet stability in the context of a heptapeptide.
The high charge density on peptides D and E should prevent the favorable strand-strand interactions required for sheet formation at low pH. The removal of two or more of the charges on the Lys ε-ammonium groups effected by increasing the pH is expected to facilitate intramolecular folding followed by self-assembly. A leucine was employed as one of the flanking residues in these peptides instead of valine because the increased side chain flexibility should maximize packing interactions required for hydrophobic cluster formation. […] Peptide E was identical to peptide D except that it incorporated residue 2A in place of residue 1A. […] Peptide F was prepared to probe the importance of hydrophobic cluster formation in β-sheet folding mediated by residue 1A. The flanking hydrophobic residues in peptide D were replaced with hydrophilic lysine residues in peptide F while maintaining a highly momologous amino acid composition and an amphiphilic periodicity of 2A.

[3] = Analytical equilibrium ultracentrifugation (solution molecular weight, quaternary structure)

rates of amide proton/deuterium exchange of the Leu and Val residues flanking 1 relative to the remaining residues [1]	association state by concentration dependent far-UV CD ([2]; 0.015-0.4 mM, pH 7, mean residue ellipticity at 225 nm constant)	pH dependence of far-UV CD spectra ([2]; 25° C.)	structure by far-UV CD ([2]; 25° C.)	aggregation upon heating ([2]; upon heating)	change of structure upon heating (far-UV CD) ([2]; upon heating)	rates of amide proton exchange of Leu-6, Val-8, Val-4 and Val-10 relative to the remaining residues ([1]; pH 3.2)	observed solution molecular weight (expected monomer 1644) ([3]; 0.11 mM, pH 6.8)	association state by analytical equilibrium ultracentrifugation ([3]; within the concentration and pH ranges studied)	Compound
at least an order of magnitude slower	–	–	–	–	–	–	–	–	CC(C)C[C@H](NC(=O)[C@H](CCCN)NC(=O)[C@@H](NC(=O)CCc1ccccc1-c1cccc(CCNC(=O)[C@H](CC(C)C)NC(=O)[C@H](CCCN)NC(=O)[C@@H](N)C(C)C)c1)C(C)C)C(N)=O [A, Val Orn Leu 1A Val Orn Leu] (H-V[Orn]L[X1]V[Orn]L-NH2)
at least an order of magnitude slower	–	–	–	–	–	–	–	–	CC(C)C[C@H](NC(=O)[C@H](CCCCN)NC(=O)[C@@H](NC(=O)[C@H](CCCCN)NC(=O)[C@@H](NC(=O)[C@@H](N)CCCCN)C(C)C)C(C)C)C(=O)NCCc1cccc(-c2ccccc2CCC(=O)N[C@H](C(=O)N[C@@H](CCCCN)C(=O)N[C@H](C(=O)N[C@@H](CCCCN)C(=O)N[C@H](C(=O)N[C@@H](CCCCN)C(N)=O)C(C)C)C(C)C)C(C)C)c1 [Peptide D, Lys Val Lys Val Lys Leu 1A Val Lys Val Lys Val Lys] (H-KVKVKL[X1]VKVKVK-NH2)
–	monomeric	little dependence on pH	both random coil and β-sheet structure	does not aggregate	increase in β-sheet structure	significantly slower	1600±80	monomeric	Lys Val N--Me--Leu Val Lys Leu 1A Val Lys Val N--Me--Leu Val Lys [Peptide G]
